Results on 14 compounds are retold here after patent publication US20260199323A1, “LIGAND COMPOUNDS FOR E3 UBIQUITIN LIGASE, PROTEIN DEGRADERS DEVELOPED ON BASIS OF LIGAND COMPOUNDS, AND USES THEREOF” (GLUETACS THERAPEUTICS (SHANGHAI) CO., LTD., priority 2021, published 2026).

What all share (assay type): cell-based, Human
In assay [1] the test system is SR. Put plainly: CCK-8 tumor cell proliferation, SR. The conditions noted are these: Homo sapiens; Table 15, ALK inhibitor based; SR; read-out: IC50 inhibiting proliferation of tumor cells, SR. A digest of the protocol: (§1)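 Ten-point titrations (10 μM highest, 5-fold steps) were applied to cells 24 h after seeding. After treatment at 37 °C, 5% CO2, cell viability was read with CCK-8 and IC50 values were computed from the resulting inhibition curves.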

The test system of assay [2] is MV-4-11. Put plainly: CCK-8 tumor cell proliferation, MV-4-11. The following applies: Homo sapiens, MV4-11; Table 15, ALK inhibitor based; MV-4-11; read-out: IC50 inhibiting proliferation of tumor cells, MV-4-11. The method, then:
(§2) The tumor cells used herein were cultured in a cell culture medium listed in table 4 at 37° C. in an incubator with 5% CO2. Prior to experimentation, all cells used were correctly identified by STR profiling, and tested negative for mycoplasma through routine screenings.
(§3) IC50 values of the compounds of the present disclosure (including the compounds in Tables 1 and 3, and compounds of examples) were measured using the Meilun Cell Counting Kit-8 kit from Dalian Meilun Biotech Co., Ltd. Assay details are as follows: tumor cells were seeded in a 96-well plate at a density listed in Table 5. After 24 h, 100 μL of the inoculated cells were treated with 0.5 μL of the compounds of the present disclosure (including the compounds in Tables 1 and 3, and compounds of examples) at 10 different successively decreasing concentrations (starting at the highest concentration of 10 μM; 5-fold serial dilutions). After the cells were treated with the compounds of the present disclosure for a period of time, the cell viability detection reagent was added to the culture medium for cell viability assessment according to the instructions provided with the CCK-8 kit. […] The growth inhibition of the compounds of the present disclosure on cells was plotted by Prism Graphpad software, and the IC50 values of the compounds of the present disclosure were calculated therefrom.

The test system of assay [3] is Mino. Put plainly: CCK-8 tumor cell proliferation, Mino. The conditions noted are these: Homo sapiens; Table 15, ALK inhibitor based; Mino; read-out: IC50 inhibiting proliferation of tumor cells, Mino. The method, then:
as §2, §3

The subject of assay [4] is PC-9. In words: CCK-8 tumor cell proliferation, PC-9. The following applies: Homo sapiens; Table 15, ALK inhibitor based; PC-9; read-out: IC50 inhibiting proliferation of tumor cells, PC-9. The method, then: The tumor cells used herein were cultured in a cell culture medium listed in table 4 at 37° C. in an incubator with 5% CO2.
as §3, with “After” for “IC50 values of the compounds of the present disclosure (including the compounds in Tables 1 and 3, and compounds of examples) were measured using the Meilun Cell Counting Kit-8 kit from Dalian Meilun Biotech Co., Ltd. Assay details are as follows: tumor cells were seeded in a 96-well plate at a density listed in Table 5. After”

Assay [5] has as its system MDA-MB-231. Put plainly: CCK-8 tumor cell proliferation, MDA-MB-231. The following applies: Homo sapiens; Table 15, ALK inhibitor based; MDA-MB-231; read-out: IC50 inhibiting proliferation of tumor cells, MDA-MB-231. A digest of the protocol:
as §1

Assay [6] relates to CCRF-CEM. In words: CCK-8 tumor cell proliferation, CCRF-CEM. Further details: IC50 for inhibiting the proliferation of tumor cells, CCRF-CEM: scale not given here. The conditions noted are these: Table 8, designed based on ER inhibitors; 96 h. A digest of the protocol:
as §1

Assay [7] has as its system CAL-62. Put plainly: CCK-8 tumor cell proliferation, CAL-62. Also noted: IC50 for inhibiting the proliferation of tumor cells, CAL-62: scale not given here. The conditions noted are these: for IC50 for inhibiting the proliferation of tumor cells, CAL-62: Table 8, designed based on ER inhibitors, 72 h; for IC50: Homo sapiens, Table 18, FAK inhibitor based, CAL-62, read-out: IC50 inhibiting proliferation of tumor cells, CAL-62. A digest of the protocol: as §1

The subject of assay [8] is Vcap. Put plainly: CCK-8 tumor cell proliferation, Vcap. The following applies: for IC50 for inhibiting the proliferation of tumor cells, Vcap: Table 8, designed based on ER inhibitors, 96 h; for IC50: Homo sapiens, VCaP, Table 18, FAK inhibitor based, Vcap, read-out: IC50 inhibiting proliferation of tumor cells, Vcap. On the procedure:
as §2, §3

The subject of assay [9] is SW620. Put plainly: CCK-8 tumor cell proliferation, SW620. The conditions noted are these: Homo sapiens, SW-620; Table 18, FAK inhibitor based; SW620; read-out: IC50 inhibiting proliferation of tumor cells, SW620. The method, then: as §2, §3

For the compound `CCc1cc2c(cc1N1CCC(N3CCN(Cc4ccc5c(c4)C(=O)N(C4CCC(=O)NC4=O)C5=O)CC3)CC1)C(C)(C)c1[nH]c3cc(C#N)ccc3c1C2=O` (centres unmarked) [GT-03761, 8-(4-(4-((2-(2,6-dioxopiperidin-3-yl)-1,3-dioxoisoindolin-5-yl)methyl)piperazin-1-yl)piperidin-1-yl)-9-ethyl-6,6-dimethyl-11-oxo-6,11-dihydro-5H-benzo[b]carbazole-3-carbonitrile], the IC50 in [1] is less than 50 nM; in assay [2] it was 1000 to 5000 nM.

`COc1cc(N2CCN(Cc3ccc4c(c3)C(=O)N(C3CCC(=O)NC3=O)C4=O)CC2)ccc1Nc1ncc(Cl)c(Nc2ccccc2P(C)(C)=O)n1` (centres unmarked) [GT-03780, 5-((4-(4-((5-chloro-4-((2-(dimethylphosphoryl)phenyl)amino)pyrimidin-2-yl)amino)-3-methoxyphenyl)piperazin-1-yl)methyl)-2-(2,6-dioxopiperidin-3-yl)isoindoline-1,3-dione]: the IC50 in assay [1] lay within 100 to 500 nM; in [2] it was 1000 to 5000 nM.

On to `CCc1cc2c(cc1N1CCC(N3CCN(Cc4cccc5c4CN(C4CCC(=O)NC4=O)C5=O)CC3)CC1)C(C)(C)c1[nH]c3cc(C#N)ccc3c1C2=O` (centres unmarked) [GT-03764, 8-(4-(4-((2-(2,6-dioxopiperidin-3-yl)-1-oxoisoindolin-4-yl)methyl)piperazin-1-yl)piperidin-1-yl)-9-ethyl-6,6-dimethyl-11-oxo-6,11-dihydro-5H-benzo[b]carbazole-3-carbonitrile], for which the IC50 in [1] is less than 50 nM; in assay [2], 50 to 100 nM; in assay [3], 50 to 100 nM; in assay [4], 100 to 500 nM; in [5] it was 50 to 100 nM.

Take `CCc1cc2c(cc1N1CCC(N3CCN(Cc4cc5c(cc4F)C(=O)N(C4CCC(=O)NC4=O)C5)CC3)CC1)C(C)(C)c1[nH]c3cc(C#N)ccc3c1C2=O` (centres unmarked) [GT-03759, 8-(4-(4-((2-(2,6-dioxopiperidin-3-yl)-6-fluoro-1-oxoisoindolin-5-yl)methyl)piperazin-1-yl)piperidin-1-yl)-9-ethyl-6,6-dimethyl-11-oxo-6,11-dihydro-5H-benzo[b]carbazole-3-carbonitrile]: the IC50 in [1] was less than 50 nM; in [2], 100 to 500 nM; in [3], 500 to 1000 nM; in assay [4], 100 to 500 nM.

Regarding `CCc1cc2c(cc1N1CCC(N3CCN(Cc4ccc5c(c4F)CN(C4CCC(=O)NC4=O)C5=O)CC3)CC1)C(C)(C)c1[nH]c3cc(C#N)ccc3c1C2=O` (centres unmarked) [GT-03758, 8-(4-(4-((2-(2,6-dioxopiperidin-3-yl)-4-fluoro-1-oxoisoindolin-5-yl)methyl)piperazin-1-yl)piperidin-1-yl)-9-ethyl-6,6-dimethyl-11-oxo-6,11-dihydro-5H-benzo[b]carbazole-3-carbonitrile], the IC50 is less than 50 nM in [1] and 100 to 500 nM in assay [2].

As for `CCC(=C(c1ccc(O)cc1)c1ccc(N2CCN(Cc3ccc4c(c3)C(=O)N(C3CCC(=O)NC3=O)C4=O)CC2)cc1)c1ccc(O)cc1` (centres unmarked) [GT-04148, 5-((4-(4-(1,2-bis(4-hydroxyphenyl)but-1-en-1-yl)phenyl)piperazin-1-yl)methyl)-2-(2,6-dioxopiperidin-3-yl)isoindoline-1,3-dione], in [6], the “IC50 for inhibiting the proliferation of tumor cells, CCRF-CEM” value is reported as “A+”. Also, in assay [7], the “IC50 for inhibiting the proliferation of tumor cells, CAL-62” value is given as “A+”. Besides, the “IC50 for inhibiting the proliferation of tumor cells, Vcap” value in [8] is on record as “A+”.

Consider `COc1cc(N2CCN(Cc3cc4c(cc3F)C(=O)N(C3CCC(=O)NC3=O)C4)CC2)ccc1Nc1ncc(Cl)c(Nc2ccccc2P(C)(C)=O)n1` (centres unmarked) [GT-03777, 3-(5-((4-(4-((5-chloro-4-((2-(dimethylphosphoryl)phenyl)amino)pyrimidin-2-yl)amino)-3-methoxyphenyl)piperazin-1-yl)methyl)-6-fluoro-1-oxoisoindolin-2-yl)piperidine-2,6-dione], for which the results for the IC50 in assay [1] and in assay [2] were less than 50 nM and 50 to 100 nM, respectively.

For the compound `CCC(=C(c1ccc(O)cc1)c1ccc(N2CCN(Cc3cccc4c3CN(C3CCC(=O)NC3=O)C4=O)CC2)cc1)c1ccc(O)cc1` (centres unmarked) [GT-04147, 3-(4-((4-(4-(1,2-bis(4-hydroxyphenyl)but-1-en-1-yl)phenyl)piperazin-1-yl)methyl)-1-oxoisoindolin-2-yl)piperidine-2,6-dione], in assay [6], the “IC50 for inhibiting the proliferation of tumor cells, CCRF-CEM” value is “A+”. The “IC50 for inhibiting the proliferation of tumor cells, CAL-62” value in [7] is given as “A+”. Moreover, the “IC50 for inhibiting the proliferation of tumor cells, Vcap” value in assay [8] is listed as “A+”.

On to `CNC(=O)c1ccccc1Nc1cc(Nc2cc(C)c(N3CCN(Cc4ccc5c(c4F)CN(C4CCC(=O)NC4=O)C5=O)CC3)cc2OC(C)C)ncc1C(F)(F)F` (centres unmarked) [GT-03941, 2-((2-((4-(4-((2-(2,6-dioxopiperidin-3-yl)-4-fluoro-1-oxoisoindolin-5-yl)methyl)piperazin-1-yl)-2-isopropoxy-5-methylphenyl)amino)-5-(trifluoromethyl)pyridin-4-yl)amino)-N-methylbenzamide], for which the IC50 in assay [9] was less than 50 nM; in assay [7], less than 50 nM; in assay [8], 100 to 500 nM.

Take `CNC(=O)c1ccccc1Nc1cc(Nc2cc(C)c(N3CCN(Cc4ccc5c(c4)CN(C4CCC(=O)NC4=O)C5=O)CC3)cc2OC(C)C)ncc1C(F)(F)F` (centres unmarked) [GT-03940, 2-((2-((4-(4-((2-(2,6-dioxopiperidin-3-yl)-1-oxoisoindolin-5-yl)methyl)piperazin-1-yl)-2-isopropoxy-5-methylphenyl)amino)-5-(trifluoromethyl)pyridin-4-yl)amino)-N-methylbenzamide]: the IC50 was 50 to 100 nM in assay [9], less than 50 nM in assay [7] and 500 to 1000 nM in assay [8].

For `COc1cc(N2CCN(Cc3ccc4c(c3)CN(C3CCC(=O)NC3=O)C4=O)CC2)ccc1Nc1ncc(Cl)c(Nc2ccccc2P(C)(C)=O)n1` (centres unmarked) [GT-03775, 3-(5-((4-(4-((5-chloro-4-((2-(dimethylphosphoryl)phenyl)amino)pyrimidin-2-yl)amino)-3-methoxyphenyl)piperazin-1-yl)methyl)-1-oxoisoindolin-2-yl)piperidine-2,6-dione], the results for the IC50 in assay [1] and in assay [2] were less than 50 nM and 100 to 500 nM, respectively.

Take `COc1cc(N2CCN(Cc3ccc4c(c3F)CN(C3CCC(=O)NC3=O)C4=O)CC2)ccc1Nc1ncc(Cl)c(Nc2ccccc2P(C)(C)=O)n1` (centres unmarked) [GT-03776, 3-(5-((4-(4-((5-chloro-4-((2-(dimethylphosphoryl)phenyl)amino)pyrimidin-2-yl)amino)-3-methoxyphenyl)piperazin-1-yl)methyl)-4-fluoro-1-oxoisoindolin-2-yl)piperidine-2,6-dione]: the IC50 was less than 50 nM in [1] and 100 to 500 nM in assay [2].

Take `COc1cc(N2CCN(Cc3cccc4c3CN(C3CCC(=O)NC3=O)C4=O)CC2)ccc1Nc1ncc(Cl)c(Nc2ccccc2P(C)(C)=O)n1` (centres unmarked) [GT-03779, 3-(4-((4-(4-((5-chloro-4-((2-(dimethylphosphoryl)phenyl)amino)pyrimidin-2-yl)amino)-3-methoxyphenyl)piperazin-1-yl)methyl)-1-oxoisoindolin-2-yl)piperidine-2,6-dione]: the IC50 in assay [1] was less than 50 nM; in assay [2] it was 100 to 500 nM.

Turning to `O=C1CCC(N2C(=O)c3ccc(CBr)cc3C2=O)C(=O)N1` (centres unmarked) [GT-03855], in assay [6], the “IC50 for inhibiting the proliferation of tumor cells, CCRF-CEM” value is on record as “A+”. Also, the “IC50 for inhibiting the proliferation of tumor cells, CAL-62” value in [7] is recorded as “A+”. Further, the “IC50 for inhibiting the proliferation of tumor cells, Vcap” value in assay [8] is on record as “A+”.
